These are literature values, as cited in patent publication US12569478B2 (priority 2021, dated 2026).

The conditions of this data set: in vivo.

Turning to `C=CCN1CC[C@]23c4c5ccc(O)c4O[C@H]2C(=O)CC[C@@]3(O)[C@H]1C5` [naloxone], the half-life is around 1 h.
